In US20240207267A1, “(R)-Glutarimide CRBN Ligands and Methods of Use” (BeiGene Switzerland GmbH, priority 2021, published 2024):
Read-outs that look alike come from different tables or passages of the source. Each block holds one molecule with its values, some of them ahead of it.

What was measured:
[1] = molecular target: EGFR L858R/T790M/C797S (BaF3-LTC cells) (Homo sapiens (Human), UniProt P00533, C797S/L858R/T790M); assay: EGFR degradation HTRF assay in BaF3-LTC cells; assay type: cell-based; details: 16 h treatment; for Dmax: maximum percentage of degradation, Table 1, read-out: LTC Dmax
EGFR L858R/T790M/C797S (BaF3-LTC cells), sequence (P00533 25-1210 T790M/C797S/L858R): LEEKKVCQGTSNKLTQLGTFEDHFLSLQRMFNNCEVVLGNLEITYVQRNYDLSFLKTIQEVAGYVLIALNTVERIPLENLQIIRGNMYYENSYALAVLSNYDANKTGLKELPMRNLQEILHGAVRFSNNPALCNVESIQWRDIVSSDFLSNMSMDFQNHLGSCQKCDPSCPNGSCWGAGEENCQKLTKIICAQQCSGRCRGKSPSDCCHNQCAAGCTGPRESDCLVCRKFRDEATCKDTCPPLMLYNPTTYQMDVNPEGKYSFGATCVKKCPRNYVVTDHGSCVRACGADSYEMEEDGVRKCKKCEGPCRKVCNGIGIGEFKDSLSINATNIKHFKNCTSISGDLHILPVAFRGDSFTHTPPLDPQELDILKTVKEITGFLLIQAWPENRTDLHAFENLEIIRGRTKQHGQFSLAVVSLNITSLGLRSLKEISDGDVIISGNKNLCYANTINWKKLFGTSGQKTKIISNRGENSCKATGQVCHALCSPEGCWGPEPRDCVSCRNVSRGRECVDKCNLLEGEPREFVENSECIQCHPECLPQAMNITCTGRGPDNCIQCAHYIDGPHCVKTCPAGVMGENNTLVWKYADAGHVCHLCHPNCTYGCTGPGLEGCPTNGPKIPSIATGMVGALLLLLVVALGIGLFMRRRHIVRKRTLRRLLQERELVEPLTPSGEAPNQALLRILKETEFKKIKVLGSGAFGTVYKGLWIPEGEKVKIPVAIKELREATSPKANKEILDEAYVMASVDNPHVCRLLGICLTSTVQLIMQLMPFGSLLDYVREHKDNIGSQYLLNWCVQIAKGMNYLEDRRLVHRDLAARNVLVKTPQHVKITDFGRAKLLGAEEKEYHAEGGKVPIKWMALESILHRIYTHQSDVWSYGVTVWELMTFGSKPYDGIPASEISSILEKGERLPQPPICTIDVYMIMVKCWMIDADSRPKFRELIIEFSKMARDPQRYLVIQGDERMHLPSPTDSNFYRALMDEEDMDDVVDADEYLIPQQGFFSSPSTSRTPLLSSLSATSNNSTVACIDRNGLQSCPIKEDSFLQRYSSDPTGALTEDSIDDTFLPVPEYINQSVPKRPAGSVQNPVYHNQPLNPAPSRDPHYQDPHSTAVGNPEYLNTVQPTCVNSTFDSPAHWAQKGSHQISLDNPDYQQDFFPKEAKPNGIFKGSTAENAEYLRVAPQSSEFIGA
Experimental: (§1) BaF3-LTC(L858R/T790M/C797S) and BaF3-DTC(Del19/T790M/C797S) cells are treated with compounds diluted in 0.2% DMSO cell culture medium and incubate for 16 h, 37° C., 5% CO2, H1975- #28 cells are treated with compounds diluted in 0.2% DMSO cell culture medium on day 2, incubate for 16 h, 37° C., 5% CO2. the final concentration of compounds in all assay is start with 10 uM, 5-fold dilution, total 8 doses were included.
(§2) After 16 h treatment, add HTRF lysis buffer to each well; seal the plate and incubate 1 hour at room temperature on a plate shaker; Once the cells are lysed, 16 μL of cell lysate are transferred to a PE 384-well HTRF detection plate; 4 μL of pre-mixed HTRF antibodies are added to each well; Cover the plate with a plate sealer, spin 1000 rpm for 1 min, Incubate overnight at room temperature; Read on BMG PheraStar with HTRF protocol (337 nm-665 nm-620 nm).
(§3) The IC50 (DC50) value of a compound can be obtained by fitting the following equation
(§4) Y=Bottom+(TOP−Bottom)/(1+((IC50/X)^hillslope))
(§5) Wherein, X and Y are known values, and IC50, Hillslope, Top and Bottom are the parameters obtained by fitting with software. Y is the inhibition percentage (calculated from the equation), X is the concentration of the compound; IC50 is the concentration of the compound when the 50% inhibition is reached. The smaller the IC50 value is, the stronger the inhibitory ability of the compound is. Vice versa, the higher the IC50 value is, the weaker the ability the inhibitory ability of the compound is; Hillslope represents the slope of the fitted curve, generally around 1*; Bottom represents the minimum value of the curve obtained by data fitting, which is generally 0%±20%; Top represents the maximum value of the curve obtained by data fitting, which is generally 100%±20%. The experimental data were fitted by calculating and analyzing with Dotmatics data analysis software.

[2] = system: EGFR Del19/T790M/C797S (BaF3-DTC cells); assay: EGFR degradation HTRF assay in BaF3-DTC cells; assay type: cell-based; details: 16 h treatment, Table 1; for DTC Dmax: maximum percentage of degradation
Experimental: as §1, §2, §3, §4, §5

CRBN&DDB1 protein = CRBN&DDB1 protein (Homo sapiens (Human), UniProt Q96SW2); assay: CRBN&DDB1 HTRF (TR-FRET) assay, blocking binding of biotin labeled thalidomide; details: CRBN&DDB1 protein (His Tag), 30 nM biotin labeled thalidomide
CRBN&DDB1 protein, sequence (Q96SW2 40-442): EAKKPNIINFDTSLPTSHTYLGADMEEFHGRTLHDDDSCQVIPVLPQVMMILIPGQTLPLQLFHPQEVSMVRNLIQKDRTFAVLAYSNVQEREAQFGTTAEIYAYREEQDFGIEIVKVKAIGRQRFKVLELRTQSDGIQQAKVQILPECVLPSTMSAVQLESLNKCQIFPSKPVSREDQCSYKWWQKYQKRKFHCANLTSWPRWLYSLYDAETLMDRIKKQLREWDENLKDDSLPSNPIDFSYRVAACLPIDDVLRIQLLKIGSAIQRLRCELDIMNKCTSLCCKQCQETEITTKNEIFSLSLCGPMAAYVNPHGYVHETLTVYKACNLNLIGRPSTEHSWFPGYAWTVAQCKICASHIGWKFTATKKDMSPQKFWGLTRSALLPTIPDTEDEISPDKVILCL
CRBN&DDB1 protein, sequence (Q16531 whole entry partner, the tested form may be a part): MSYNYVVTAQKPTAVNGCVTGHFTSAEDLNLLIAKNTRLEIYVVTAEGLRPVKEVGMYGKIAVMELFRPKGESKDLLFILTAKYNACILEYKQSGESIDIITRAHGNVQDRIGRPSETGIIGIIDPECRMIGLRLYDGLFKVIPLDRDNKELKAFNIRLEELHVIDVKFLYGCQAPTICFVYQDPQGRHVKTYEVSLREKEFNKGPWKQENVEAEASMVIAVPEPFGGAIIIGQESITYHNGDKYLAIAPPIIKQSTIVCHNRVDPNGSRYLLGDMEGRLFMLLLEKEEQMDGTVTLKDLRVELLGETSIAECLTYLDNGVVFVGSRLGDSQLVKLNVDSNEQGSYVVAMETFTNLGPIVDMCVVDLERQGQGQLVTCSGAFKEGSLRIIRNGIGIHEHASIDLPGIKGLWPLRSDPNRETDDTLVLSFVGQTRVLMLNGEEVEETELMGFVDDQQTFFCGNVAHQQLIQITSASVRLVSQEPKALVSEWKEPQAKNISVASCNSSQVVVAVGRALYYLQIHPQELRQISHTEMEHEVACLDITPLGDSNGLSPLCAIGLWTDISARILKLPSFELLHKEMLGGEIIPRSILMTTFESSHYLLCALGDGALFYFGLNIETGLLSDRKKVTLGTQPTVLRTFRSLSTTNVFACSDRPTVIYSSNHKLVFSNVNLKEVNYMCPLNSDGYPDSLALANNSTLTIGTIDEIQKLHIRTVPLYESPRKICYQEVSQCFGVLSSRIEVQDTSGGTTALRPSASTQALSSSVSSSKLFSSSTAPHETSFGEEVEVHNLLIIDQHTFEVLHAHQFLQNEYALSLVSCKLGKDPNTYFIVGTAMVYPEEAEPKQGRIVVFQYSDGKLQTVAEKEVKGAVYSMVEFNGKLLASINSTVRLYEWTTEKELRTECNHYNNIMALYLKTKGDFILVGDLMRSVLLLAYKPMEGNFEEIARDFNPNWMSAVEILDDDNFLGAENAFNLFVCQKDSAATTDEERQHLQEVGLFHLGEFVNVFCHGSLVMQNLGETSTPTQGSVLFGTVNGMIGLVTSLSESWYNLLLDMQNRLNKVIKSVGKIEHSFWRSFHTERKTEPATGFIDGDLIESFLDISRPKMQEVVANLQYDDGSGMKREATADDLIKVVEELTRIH
Experimental: Biochemical potency of compound was determined by using CRBN& DDB1 protein (His Tag). Compounds were tested for blocking the binding of CRBN&DDB1 protein (CRBN, aa 40-442, DDB1, 1-1140, Viva Biotech) with biotin labeled thalidomide in an assay based on the time-resolved fluorescence-resonance energy transfer (TR-FRET) methodology. The assay was carried out in 384-well low volume black plates in a reaction mixture containing CRBN& DDB1 protein, 30 nM biotin labeled thalidomide and 0-10 μM compound in buffer containing 50 mM HEPES pH7.5, 50 mM NaCl, 0.01% BSA, 1 mM DTT and 0.015% Brij-35. The protein was preincubated with compound for 60 minutes at room temperature and biotin labeled thalidomide was added to plate. After further incubation at room temperature for 60 minutes detection reagents Mab Anti-6His Eu cryptate Gold (Cisbio, Cat #61HI2KLB) and Streptavidin-XL665 (Cisbio, Cat #610SAXLG) were added to plate. Plates were sealed and incubated at room temperature for 1 hour, and the TR-FRET signals (ex337 nm, em665 nm/620 nm) were recorded on a PHERAstar FSX plate reader (BMG Labtech). The inhibition percentage of CRBN& DDB1 protein interaction with biotin labeled thalidomide in presence of increasing concentrations of compounds was calculated based on the ratio of fluorescence at 665 nm to that at 620 nm. IC50 was derived from fitting the dose-response % inhibition data to the four-parameter logistic model by Dotmatics.
Four-parameter logistic equation: Y=Bottom+(Top−Bottom)/(1+10^((LogIC50−X) *HillSlope)). While X is Log of compound concentration. Y is % inhibition at X. Bottom is the bottom of the curve effect. Top is the top of the curve effect. HillSlope is the hill slope factor.

[3] = system: EGFR Del19/T790M/C797S (H1975-clone #28 cells); assay: EGFR degradation HTRF assay in H1975-clone #28 cells; assay type: cell-based; details: H1975-clone #28(Del19/T790M/C797S) cells, 16 h treatment, Table 2; for DC50: read-out: H1975 # 28 DTC DC50; for H1975 # 28 DTC Dmax: maximum percentage of degradation
Experimental: H1975-clone #28(Del19/T790M/C797S) was stably expressed in H1975 cell lines (from ATCC) by lentivirus-mediated over-expression. The EGFR over-expressed cells then underwent gene knockout, in which the EGFR targeting sgRNA was designed to only target the endogenous EGFR copies and preserve the exogenous EGFR copies. Followed by the gene knockout, the edited H1975 cells were seeded in 96 well plates at the concentration of […], cultured for about 2 weeks to allow single clones formation. The formed clones were screened by DNA sequencing and whole exon sequencing analysis for the desired edition. H1975-clone #28 was finally confirmed as homozygous Del19/T790M/C797S EGFR clone
as §1, §2, §3, §4, §5

[4] = Table 2, read-out: BaF3-LTC DC50

DC50 ([1]; Table 1, read-out: LTC DC50): 6.1 nM | Dmax [1]: 91.5% | DC50 [2]: 0.61 nM
SMILES: CCc1cc(Nc2ncc(Br)c(Nc3ccc4nccnc4c3P(C)(C)=O)n2)c(OC)cc1N1CCC(N2CCN(CCc3cc(F)c([C@H]4CCC(=O)NC4=O)c(F)c3)CC2)CC1 [Example 16, (R)-3-(4-(2-(4-(1-(4-((5-bromo-4-((5-(dimethylphosphoryl)quinoxalin-6-yl)amino)pyrimidin-2-yl)amino)-2-ethyl-5-methoxyphenyl)piperidin-4-yl)piperazin-1-yl)ethyl)-2,6-difluorophenyl)piperidine-2,6-dione]
DTC Dmax [2]: 88.65%

IC50 (CRBN&DDB1 protein): 27 nM
SMILES: CCO/C=C/c1cc(F)c([C@H]2CCC(=O)NC2=O)c(F)c1 [Example 13, (R,E)-3-(4-(2-ethoxyvinyl)-2,6-difluorophenyl)piperidine-2,6-dione]

DC50 ([1]; Table 1, read-out: LTC DC50): 45.1 nM | Dmax [1]: 84.6% | DC50 [2]: 6.75 nM
SMILES: CCc1cc(Nc2ncc(Br)c(Nc3ccc4nccnc4c3P(C)(C)=O)n2)c(OC)cc1N1CCC(N2CCN(CCc3cc(F)c([C@@H]4CCC(=O)NC4=O)c(F)c3)CC2)CC1 [Example 17, (S)-3-(4-(2-(4-(1-(4-((5-bromo-4-((5-(dimethylphosphoryl)quinoxalin-6-yl)amino)pyrimidin-2-yl)amino)-2-ethyl-5-methoxyphenyl)piperidin-4-yl)piperazin-1-yl)ethyl)-2,6-difluorophenyl)piperidine-2,6-dione]
DTC Dmax [2]: 64.81%

IC50 (CRBN&DDB1 protein): 24 nM
SMILES: CC1(C)CN(c2cc(F)c([C@H]3CCC(=O)NC3=O)c(F)c2)C[C@H]1C(=O)O [Example 14, (S)-1-(4-((R)-2,6-dioxopiperidin-3-yl)-3,5-difluorophenyl)-4,4-dimethylpyrrolidine-3-carboxylic acid]

DC50 ([1]; Table 1, read-out: LTC DC50): 18.2 nM | DC50 [2]: 6.87 nM
SMILES: CCc1cc(Nc2ncc(Br)c(Nc3ccc4nccnc4c3P(C)(C)=O)n2)c(OC)cc1N1CCC(N2CCN(CCc3ccc(C4CCC(=O)NC4=O)cc3)CC2)CC1 (centres unmarked) [Example 19, 3-(4-(2-(4-(1-(4-((5-bromo-4-((5-(dimethylphosphoryl)quinoxalin-6-yl)amino)pyrimidin-2-yl)amino)-2-ethyl-5-methoxyphenyl)piperidin-4-yl)piperazin-1-yl)ethyl)phenyl)piperidine-2,6-dione]
DTC Dmax [2]: 92.16%

IC50 (CRBN&DDB1 protein): 239 nM
SMILES: O=C1CCC(c2ccc(CCO)cc2)C(=O)N1 (centres unmarked) [Example 15, 3-(4-(2-hydroxyethyl)phenyl)piperidine-2,6-dione]

DC50 ([1]; Table 1, read-out: LTC DC50): 8.82 nM | DC50 [2]: 3.74 nM
SMILES: CCc1cc(Nc2ncc(Br)c(Nc3ccc4nccnc4c3P(C)(C)=O)n2)c(OC)cc1N1CCC(N2CCN(CCc3cc(F)c(C4CCC(=O)NC4=O)c(F)c3)CC2)CC1 (centres unmarked) [Example 18, 3-(4-(2-(4-(1-(4-((5-bromo-4-((5-(dimethylphosphoryl)quinoxalin-6-yl)amino)pyrimidin-2-yl)amino)-2-ethyl-5-methoxyphenyl)piperidin-4-yl)piperazin-1-yl)ethyl)-2,6-difluorophenyl)piperidine-2,6-dione]
DTC Dmax [2]: 95.55%

DC50 [1, 4]: 7.8 nM | DC50 [3]: 0.595 nM
SMILES: CCc1cc(Nc2ncc(Br)c(Nc3ccc4nc(C)ccc4c3P(C)(C)=O)n2)c(OC)cc1N1CCC(N2CCN(C(=O)[C@@H]3CCN(c4ccc([C@H]5CCC(=O)NC5=O)cc4)C3)CC2)CC1 [Example 28, (R)-3-(4-((R)-3-(4-(1-(4-((5-bromo-4-((5-(dimethylphosphoryl)-2-methylquinolin-6-yl)amino)pyrimidin-2-yl)amino)-2-ethyl-5-methoxyphenyl)piperidin-4-yl)piperazine-1-carbonyl)pyrrolidin-1-yl)phenyl)piperidine-2,6-dione]
H1975 # 28 DTC Dmax [3]: 62.25%

DC50 [1, 4]: 8.99 nM | DC50 [3]: 1.37 nM
SMILES: CCc1ccc2c(P(C)(C)=O)c(Nc3nc(Nc4cc(CC)c(N5CCC(N6CCN(C(=O)[C@@H]7CCN(c8cc(F)c([C@H]9CCC(=O)NC9=O)c(F)c8)C7)CC6)CC5)cc4OC)ncc3Br)ccc2n1 [Example 24, (R)-3-(4-((R)-3-(4-(1-(4-((5-bromo-4-((5-(dimethylphosphoryl)-2-ethylquinolin-6-yl)amino)pyrimidin-2-yl)amino)-2-ethyl-5-methoxyphenyl)piperidin-4-yl)piperazine-1-carbonyl)pyrrolidin-1-yl)-2,6-difluorophenyl)piperidine-2,6-dione]
H1975 # 28 DTC Dmax [3]: 82.72%

More lines, now with the values behind:

SMILES: CCO/C=C/c1cc(F)c([C@@H]2CCC(=O)NC2=O)c(F)c1 [Example 2, (S,E)-3-(4-(2-ethoxyvinyl)-2,6-difluorophenyl)piperidine-2,6-dione]
IC50 (CRBN&DDB1 protein): 406 nM

SMILES: O=C1CCC(c2c(F)cc(N3CC(CO)C3)cc2F)C(=O)N1 (centres unmarked) [Example 9, 3-(2,6-difluoro-4-(3-(hydroxymethyl)azetidin-1-yl)phenyl)piperidine-2,6-dione]
IC50 (CRBN&DDB1 protein): 64 nM

SMILES: O=C1CC[C@@H](c2c(F)cc(N3CC[C@@H](C(=O)O)C3)cc2F)C(=O)N1 [Example 6, (R)-1-(4-((S)-2,6-dioxopiperidin-3-yl)-3,5-difluorophenyl)pyrrolidine-3-carboxylic acid]
IC50 (CRBN&DDB1 protein): 1070 nM

SMILES: O=C1CC[C@H](c2c(F)cc(N3CC[C@@H](CO)C3)cc2F)C(=O)N1 [Example 7, (R)-3-(2,6-difluoro-4-((R)-3-(hydroxymethyl)pyrrolidin-1-yl)phenyl)piperidine-2,6-dione]
IC50 (CRBN&DDB1 protein): 22 nM

SMILES: O=C1CC[C@H](c2c(F)cc(N3CC[C@@H](C(=O)O)C3)cc2F)C(=O)N1 [Example 5, (R)-1-(4-((R)-2,6-dioxopiperidin-3-yl)-3,5-difluorophenyl)pyrrolidine-3-carboxylic acid]
IC50 (CRBN&DDB1 protein): 26 nM

SMILES: O=C1CCC(c2ccc(N3CC[C@@H](C(=O)O)C3)cc2)C(=O)N1 (stereo partly drawn) [Example 12, (3R)-1-(4-(2,6-dioxopiperidin-3-yl)phenyl)pyrrolidine-3-carboxylic acid]
IC50 (CRBN&DDB1 protein): 178 nM
